According to patent US20240043615A1, “AMINO ACID POLYMER-PLATINUM ANTICANCER DRUG CONJUGATES” (priority 2020, published 2024):
Entries after “also recorded” stand apart in the source; their conditions may differ.

Key:
[1] = tested on: multiple drug resistant MDA-MB-231 cells (MDA-MB-231/MDR); assay: Cytotoxicity in multiple drug resistant MDA-MB-231 cells; format: cell-based, human; conditions: different concentrations of Pt, 30 min
Description: (§1) A2780 cisplatin-resistant cells (A2780-Cis) and multiple drug resistant MDA-MB-231 cells (MDA-MB-231/MDR) were employed as models of drug resistant cells. 5×10^3 A2780-Cis or MDA-MB-231/MDR cells/well were seeded in a 96-well plate and cultured overnight. […] The results of this study are found in FIGS. 8A and 8B.

[2] = tested on: A2780 cisplatin-resistant cells (A2780-Cis); assay: Cytotoxicity in cisplatin-resistant A2780 cells; format: cell-based, human; conditions: different concentrations of Pt, 30 min
Description: as §1

CT26 tumor [3] = conditions: CT26-tumor bearing mice, i.v., same dosage of oxaliplatin and P(G-A)-Asp-Pt
CT26 cells [4] = conditions: for cell viability of CT26 cells with respect to incubation time: 25 μg Pt/mL, different time points, CCK8; for cell viability of CT26 cells: varying platinum concentration, 30 min
Description: 5×10^3 CT26 cells/well were seeded in a 96-well plate and cultured overnight. […] Cell viability was detected by CCK8 assay. The concentration of each of the platinum derivatives was calculated based on platinum concentration.
(§2) CT26, A2780 or MDA-MB-231 cells were seeded in a 96-well plate and cultured overnight.
The concentration of each of the platinum derivatives was calculated based on platinum concentration.

A2780 tumor = assay: Anti-tumor efficacy, A2780 tumor-bearing mice; format: in vivo; conditions: i.v.
[5] = tested on: MDA-MB-231 human breast cancer cells; assay: Cytotoxicity in MDA-MB-231 cells; format: cell-based; conditions: varying platinum concentration, 30 min
Description: as §2

[6] = Body weight change in mice; conditions: single 8 mg (Pt)/kg injection
CT26 cells [7] = assay: Annexin-V/propidium iodide flow cytometry (apoptosis/necrosis); format: cell-based, mouse; conditions: 15 μg (Pt)/mL, different times
Description: CT26 cells were seeded in a 6-well plate and cultured overnight. […] Apoptosis: Annexin V^+ PI^−, Necrosis: PI^+.

[8] = tested on: A2780 cisplatin-resistant tumor; conditions: i.v.; control 5% glucose
[9] = Plasma pharmacokinetics in tumor-free mice (Pt by ICP-OES); conditions: 4 mg (Pt)/kg Pt-equivalent dosage
Description: The dosage was calculated based on Pt. Plasma samples were collected at different time points. Pt content was measured by ICP-OES.

[10] = Spleen toxicity evaluation in mice; conditions: mice after treatment
[11] = tested on: A2780 human ovarian cancer cells; assay: Cytotoxicity in A2780 cells; format: cell-based; conditions: varying platinum concentration, 30 min
Description: as §2

CT26 cells [12] = assay: LysoTracker flow cytometry (lysosomal rupture); format: cell-based, mouse; conditions: treatment 1 h; LysoTracker deep red 100 nM 40 min
Description: CT26 cells were seeded in a 6-well plate and cultured overnight. […] Cells were then stained with LysoTracker deep red (100 nM) for 40 min. Cells were analyzed by flow cytometry.

CT26 tumor [13] = assay: Anti-tumor efficacy, CT26 tumor-bearing mice; format: in vivo; conditions: i.v.
CT26 cells [14] = conditions: dynasore, chlorpromazine, genistein, cytochalasin D 40 min, then 25 μg (Pt)/mL for 30 min
CT26 cells [15] = conditions: short-time treatment
[16] = same Pt dosage of oxaliplatin and P(G-A)-Asp-Pt, control 5% glucose

Row | Compound | cell viability of MDA-MB-231/MDR cells [1] | cell viability of A2780-Cis cells [2] | cell viability of CT26 cells with respect to incubation time (CT26 cells [4]) | cell viability of CT26 cells (CT26 cells [4]) | A2780 tumor growth (A2780 tumor; [16]) | cell viability of MDA-MB-231 cells [5] | A2780-Cis tumor growth [8] | cell viability of A2780 cells [11] | LysoTracker signal (MFI) in CT26 cells (CT26 cells [12]) | CT26 tumor growth (CT26 tumor [13]; [16]) | other results
1 | N.N.[Cl][Pt][Cl] [cisplatin] | little effect | little effect | – | – | – | – | – | – | – | – | –
2 | O=C1[O][Pt]2([NH][C@@H]3CCCC[C@H]3[NH]2)[O]C1=O [oxaliplatin, reference compound] | little effect | little effect | little effect within that time interval | little effect | partially slowed CT26 and A2780 tumor growth | little effect | partial anti-tumor efficacy on A2780-Cis tumors | little effect | little effect | partially slowed CT26 and A2780 tumor growth | Pt concentration in tumors versus time (CT26 tumor [3]): rapidly dropped over time; body weight decrease [6]: more than 15%; apoptosis (Annexin V+ PI−) of CT26 cells (CT26 cells [7]): induced cell apoptosis gradually from 0.5 h to 18 h; Pt concentration in plasma versus time (circulation time) [9]: quickly cleared from plasma; spleen appearance and weight [10]: dramatically shrunken with decreased weight
3 | Poly L-Glutamic and poly L-Aspartic acid (Glu:Asp = 7:3)-L-Aspartic-Platinum [P(G-A)-Asp-Pt] | able to kill these drug resistant cells in 30 min | able to kill these drug resistant cells in 30 min | induce rapid cell death in as short as 30 min | able to kill these cancer cells; also recorded: best cytotoxicity to CT26 cells compared to the other platinum derivatives tested; also recorded: better efficacy that P(G-A)-Glu-Pt and P(G-A)-D-Asp-Pt | significantly inhibited tumor growth compared to the same oxaliplatin dosage | able to kill these cancer cells | significantly prohibited A2780-Cis tumor growth | able to kill these cancer cells | reduced LysoTracker signal | significantly inhibited tumor growth compared to the same oxaliplatin dosage | IC50 in CT26 cells in different incubation times (CT26 cells [4]; 24 and 48 h, compared with oxaliplatin): lower IC50; A2780 tumor growth (A2780 tumor; high dose): completely inhibited the growth; mice with complete response, A2780 tumors (A2780 tumor; high dose): over 40%; necrosis (PI+) of CT26 cells (CT26 cells [7]): triggered cancer cell necrosis quickly in 30 min; viability of CT26 cells pre-treated with endocytosis/micropinocytosis inhibitors (CT26 cells [14]): partially restore cell viability; CT26 tumor growth (CT26 tumor [13]; high dose): completely inhibited the growth; mice with complete response, CT26 tumors (CT26 tumor [13]; high dose): over 40%; morphological changes in CT26 cells (CT26 cells [15]): Obvious cancer cell swelling and disrupted plasma membrane
4 | Poly L-Glutamic and poly L-Aspartic acid (Glu:Asp = 7:3)-Platinum [P(G-A)-Pt] | – | – | – | best cytotoxicity to CT26 cells compared to the other platinum derivatives tested | – | – | – | – | – | – | –
